Legend:
[1] = UV-Vis absorption spectrum; type: physicochemical
From the text: Without wishing to be bound by theory, the chemical compound and the uncaging schematically proceeds as illustrated in FIG. 12. In a preferred embodiment, the photosensitizer moiety absorbs light of a wavelength from 360 nm-420 nm while the caged fluorophore moiety is essentially insensitive to light of a wavelength >400 nm. This typically means that the absorption coefficient of the photosensitizer as a wavelength of higher than 400 nm is more than 10 times, preferably more than 40 times as high as the absorption coefficient of the caged fluorophore moiety at the same wavelength.

[2] = tested on: MCF10A cells; test: Uncaging efficiency of caged rhodamine with or without thioxanthone in cells; type: cell-based; conditions: for photoactivation / fluorescent response of irradiated cells: cells incubated with 15 uM, 405 nm exposure (1000 J/cm^2)
Method: FIGS. 11A and 11B illustrate images of cells incubated with a phototagging agent, with and without photosensitizer, respectively.
For example, uncaging efficiency is determined by a relative decrease in the energy or intensity of light needed to uncage the phototagging agent. For example, a wavelength at which the amount of energy or intensity is compared is more than four hundred nanometer, e.g. 405 nm as shown in the comparative example of FIGS. 11A and 11B.
The comparison is carried out by directly measuring uncaging efficiency in biological samples. The described experiment was conducted in mammalian cancer cell lines but can be generalized without loss of relevance to other mammalian cell types. The phototagging agent (caged rhodamine with thioxanthone) at 15 uM was incubated with MCF10A cells for 15 min. The caged moiety was then removed by irradiation with 405 nm CW light at 500-1500 J/cm^2. […] The uncaged rhodamine in the cells was imaged by 532 nm excitation (200 mW/0.35 cm^2).

[3] = tested on: cells; test: Cell permeability assay: fluorescence and retention of activated dye in phototagged cells; type: cell-based; conditions: 15 uM for 15 min, PBS rinse, 405 nm light (1000 J/cm^2), 532 nm excitation; FIG. 10B; listed as phototagging agent
From the text: The unreacted agent was then rinsed away with PBS (phosphate buffered Saline). […] After activation, fluorescence of photoactivated uncaged rhodamine was observed and imaged by 532 nm excitation (200 mW/0.35 cm^2).

COc1cc(COC(=O)N2CCCc3cc4c(cc32)Oc2cc3c(cc2C42OC(=O)c4cc(C(=O)Nc5ccc6sc7ccccc7c(=O)c6c5)ccc42)CCCN3C(=O)OCc2cc(OC)c(OC)cc2[N+](=O)[O-])c([N+](=O)[O-])cc1OC [chemical compound A]
absorption >400 nm [1]: has absorption >400 nm
light energy at which the caged moiety was removed (uncaging) ([2]; 405 nm CW light, 15 uM agent incubated with MCF10A cells for 15 min, uncaged rhodamine imaged by 532 nm excitation): 500-1500 J/cm^2
uncaging efficiency compared to corresponding caged rhodamine without photosensitizer thioxanthone ([2]; FIG. 10A, 405 nm): more than ten
photoactivation / fluorescent response of irradiated cells ([2]; listed as caged rhodamine conjugated with thioxanthone): a fluorescent response F could be measured
photoactivation / fluorescent response of irradiated cells ([2]; listed as phototagging agent): photoactivated
time the uncaged phototagging agent stays inside cells (photoactivated fluorescence observed) [3]: seven
